Assay results taken from article PMC9465178, “Cinnamaldehyde derivatives act as antimicrobial agents against Acinetobacter baumannii through the inhibition of cell division” (Frontiers in Microbiology, 2022).
pIC50: −log10 of the molar value. In brackets after ≈: the same amount, converted by molar mass. Read-outs that look alike come from different tables or passages of the source. Peptide text beside a SMILES is read from it. * marks the point of attachment. βNA = c1ccc2cc(N*)ccc2c1

Legend:
[1] = tested on: A. baumannii ATCC 19606 and UW 5075; test: Outer membrane permeabilisation, nitrocefin hydrolysis; format: cell-based, Acinetobacter baumannii; conditions: PAβN at 100 or 200 µg/mL, nitrocefin hydrolysis at 490 nm
Experimental: A. baumannii ATCC 19606 and the extensively resistant strain UW 5075 were assayed for permeabilisation of the outer membrane by the efflux pump inhibitor PAβN. Nitrocefin was added to the cells that received no treatment (black circles), cells treated with the outer membrane permeabilizer polymyxin B (PMB, red squares) or PAβN at 100 µg/mL (light blue triangles) or 200 µg/mL (dark blue triangles). Nitrocefin hydrolysis by the periplasmic β-lactamase was observed as an increase in absorbance at 490 nm. Representative traces are shown from triplicate experiments performed on different days. Symbols represent the mean of triplicate readings ± SEM.

A. baumannii XDR UW 5075 = test: MIC, microbroth dilution (EUCAST); format: cell-based, Acinetobacter baumannii
Experimental: (§1) Reference bacterial strains were obtained from the American Type Culture Collection (ATCC). Vancomycin resistant Enterococcus faecium (VRE 734, wastewater isolate from the Venter Laboratory Collection) was isolated on Bile Esculin agar (Oxoid, Australia) containing 6 μg/mL vancomycin and identified using MALDI-TOF mass spectrometry (Bruker, Preston, Victoria, Australia, Australian Center for Antimicrobial Resistance Ecology). The Pseudomonas aeruginosa WT PAO1 and Escherichia coli with deletions of both acrA and acrB genes encoding drug efflux pumps were obtained from the Venter laboratory stock ([Welch et al., 2010]). The protocol for microbial growth was adopted from the European Committee on Antimicrobial Susceptibility Testing (EUCAST) ([European Committee for Antimicrobial Susceptibility Testing, 2016]).
(§2) Non-fastidious bacteria and clinical isolates were maintained in Mueller Hinton (MH) broth (Acumedia, United Kingdom) supplemented with 15% (v/v) glycerol (Chem-Supply, Australia), cultured on Mueller Hinton (MH) agar (Acumedia, United Kingdom) plated and incubated at 37°C. Fastidious bacteria were maintained in Brain Heart Infusion (BHI) broth (Acumedia, United Kingdom) supplemented with 15% (v/v) glycerol at −80°C. The fastidious bacteria were cultured on MH agar plates supplemented with 5% (v/v) lysed horse blood and 3% (v/v) fetal bovine serum and incubated at 30°C in the presence of 5% CO2. Drug susceptibility assays were carried out with the non-fastidious cultures grown in cation-adjusted Mueller Hinton (CaMH) broth (Becton Dickinson, France). Streptococcus pyogenes was grown in CaMH broth supplemented with 5% (v/v) lysed horse blood and 3% (v/v) fetal bovine serum whereas Enterococcus faecium was grown in BHI broth.
(§3) The minimum inhibitory concentrations (MICs) for all six compounds were determined using the microbroth dilution protocol as per EUCAST with an inoculum of approximately […] in an exponential growth phase ([European Committee for Antimicrobial Susceptibility Testing, 2016]). Bacterial suspension, 100 μL/well, was added to 100 μL/well of drug dilutions, then incubated for 18 h at 37°C. Fastidious bacterial suspensions were instead incubated at 30°C in the presence of 5% CO2. Bacterial growth was assessed by measuring the change in A600 nm between time 0 and 18 h (Cytation5® Cell Imaging Multi-Mode Reader, Bio-Tek®). Levofloxacin was used as the positive control. Assays were completed in duplicate in at least three independent experiments.

A. baumannii ATCC 19606 [2] = test: MIC, microbroth dilution (EUCAST); format: cell-based, Acinetobacter baumannii
Experimental: as §1, §2, §3

E. coli FtsZ [3] = tested on: E. coli FtsZ; set-up: method as in Domadia et al., 2007; conditions: ref Domadia et al., 2007, read-out: IC50, GTPase activity; cited from earlier work
E. coli = conditions: cited from earlier work
E. coli FtsZ [4] = conditions: E. coli FtsZ; ref Domadia et al., 2007; cited from earlier work
A. baumannii ATCC 19606 [5] = test: Cell division phenotype by light microscopy; format: cell-based, Acinetobacter baumannii; conditions: divin at 64 μg/mL
Experimental: Morphological changes of bacteria when exposed to the compounds were assessed microscopically using the assay as previously described ([Chai et al., 2020]). Eppendorf® tubes were set up with A. baumannii ATCC 19606 as described for the time-kill assays. At time 0, 1, 3, 6, and 18 h, an aliquot of the bacterial suspension (1 μL) was transferred onto a glass slide and viewed under a light microscope (Olympus CX33®) at 100 × magnification. Representative images were captured using JENOPTIK GRYPHAX® imaging.
A 1 μL aliquot was taken out at varying timepoints (0, 1, 3, 6, and 18 h) and imaged by light microscopy. The images for 6 h are depicted here. […] The white arrow indicates “grooving” site, an indication of where separation of daughter cells should take place. Scale bar is 50 μm.
Four of the compounds (LXC 31, 33, 35 and 41) were tested at 1× and 2× their minimum inhibitory concentration (MIC) whereas LXC 36 and 43 were tested at 2× and 4× MIC. The phenotypic changes in A. baumannii morphology were analysed under a light microscope (100× magnification) at time 0, 1, 3, 6 and 18 h. Scale bar is 50 µm.

[6] = tested on: Methicillin resistant Staphylococcus aureus; test: Antibacterial activity (MIC), microbroth dilution; format: cell-based; conditions: ATCC 43300 / MRSA; Methicillin resistant Staphylococcus aureus (MRSA ATCC 43300); unit inferred; read-out: Antibacterial activity (MIC)
Experimental: as §1, §2, §3

[7] = tested on: Pseudomonas aeruginosa ATCC 27853; test: Antibacterial activity (MIC), microbroth dilution; format: cell-based; conditions: ATCC27853; Pseudomonas aeruginosa ATCC 27853; unit inferred; read-out: Antibacterial activity (MIC)
Experimental: as §1, §2, §3

[8] = tested on: Escherichia coli ATCC 35218; test: Antibacterial activity (MIC), microbroth dilution; format: cell-based; conditions: ATCC35218; Escherichia coli ATCC 35218; unit inferred; read-out: Antibacterial activity (MIC)
Experimental: as §1, §2, §3

[9] = tested on: Escherichia coli WT BW 25113; test: Antibacterial activity (MIC), microbroth dilution; format: cell-based
Experimental: as §1, §2, §3

[10] = tested on: Klebsiella pneumoniae ATCC 4352; test: Antibacterial activity (MIC), microbroth dilution; format: cell-based; conditions: ATCC4352; Klebsiella pneumoniae ATCC 4352; unit inferred; read-out: Antibacterial activity (MIC)
Experimental: as §1, §2, §3

[11] = tested on: Klebsiella pneumoniae ATCC 13883; test: Antibacterial activity (MIC), microbroth dilution; format: cell-based; conditions: ATCC13883; Klebsiella pneumoniae ATCC 13883; unit inferred; read-out: Antibacterial activity (MIC)
Experimental: as §1, §2, §3

[12] = tested on: Pseudomonas aeruginosa WT PAO1; test: Antibacterial activity (MIC), microbroth dilution; format: cell-based; conditions: Pseudomonas aeruginosa WT PAO1; unit inferred; read-out: Antibacterial activity (MIC)
Experimental: as §1, §2, §3

[13] = tested on: Klebsiella pneumoniae ATCC 33495; test: Antibacterial activity (MIC), microbroth dilution; format: cell-based; conditions: ATCC33495; Klebsiella pneumoniae ATCC 33495; unit inferred; read-out: Antibacterial activity (MIC)
Experimental: as §1, §2, §3

[14] = tested on: Enterobacter aerogenes ATCC 13408; test: Antibacterial activity (MIC), microbroth dilution; format: cell-based; conditions: Klebsiella aerogenes, ATCC13408; Enterobacter aerogenes ATCC 13408; unit inferred; read-out: Antibacterial activity (MIC)
Experimental: as §1, §2, §3

[15] = tested on: Streptococcus pneumoniae (type 3, mucoid strain) ATCC 6303; test: Antibacterial activity (MIC), microbroth dilution; format: cell-based; conditions: ATCC6303; Streptococcus pneumoniae ATCC 6303; unit inferred; read-out: Antibacterial activity (MIC)
Experimental: as §1, §2, §3

[16] = tested on: Streptococcus pyogenes ATCC 10389; test: Antibacterial activity (MIC), microbroth dilution; format: cell-based; conditions: ATCC10389; Streptococcus pyogenes ATCC 10389; unit inferred; read-out: Antibacterial activity (MIC)
Experimental: as §1, §2, §3

human red blood cells = test: Hemolysis assay; format: cell-based
Experimental: The hemolysis assay was performed using fresh human red blood cells (RBCs). […] These were performed in quadruplicate. Thereafter, 192 μL RBCs were added into all wells and the plates were incubated at 37°C under constant shaking (100 rpm) for 1 h. RBCs were precipitated by centrifugation of the plates (1,000× g for 3 min). An aliquot (100 μL) of each supernatant was transferred into a new 96-microwell plate and the A450 nm was determined using a PerkinElmer Enspire® plate reader. The fraction of intact RBC for each sample was determined as fraction of the intact RBCs for the sample without the addition of compounds (set at 100%) and plotted as a function of compound concentration.
A 1% (v/v) Triton X-100 was used to indicate complete RBC lysis (^‡). […] The assays were performed in quadruplicates. The plates were incubated at 37°C while constantly shaking at 100 rpm for 1 h. Intact RBCs were removed by centrifugation and the presence of hemolytic products in the supernatant were determined by measuring the absorbance at A450 nm. The results are presented in mean ± SEM. Statistical analysis was performed using one-way ANOVA and the asterisks (*) represent statistical significance (*p < 0.05; **p < 0.005; ***p < 0.0005; ****p < 0.0001).

[17] = Acinetobacter baumannii, XDRUW5075, 18 h
[18] = Acinetobacter baumannii, ATCC19606, A. baumannii ATCC 19606, 18 h, 37°C, read-out: MIC
[19] = WTBW25113, Escherichia coli WT BW 25113, unit inferred, read-out: Antibacterial activity (MIC)

NC(N)=NCCC[C@H](NC(=O)[C@@H](N)Cc1ccccc1)C(=O)Nc1ccc2ccccc2c1 [PAβN, phenylalanine arginine-β-naphthylamide] (H-Phe-Arg-βNA)
Damage of the bacterial outer membrane [1]: does not damage the bacterial outer membrane

C[C@@H](O)[C@H]1C(=O)N2C(C(=O)O)=C(SCCN=CN)C[C@H]12 [Imipenem, reference compound]
MIC (A. baumannii XDR UW 5075; [17]): 128 µg/mL (≈ 428 µM)
MIC (A. baumannii ATCC 19606 [2]; [18]): 1 µg/mL (≈ 3.34 µM)

O=C/C=C/c1ccccc1 [cinnamaldehyde]
pIC50 (E. coli FtsZ [3]): 5.24
MIC (E. coli; ref Domadia et al., 2007, Li et al., 2015a): 1000 µg/mL (≈ 7570 µM)
Mechanism of action (bacteriostatic) (E. coli; ref Domadia et al., 2007): bacteriostatic
ED50, self-polymerization (E. coli FtsZ [4]): 6.9 µM

Colistin [reference compound]
MIC (A. baumannii XDR UW 5075; A. baumannii XDR UW 5075, 18 h, 37°C): 2 µg/mL
MIC (A. baumannii ATCC 19606 [2]; A. baumannii ATCC 19606, 18 h, 37°C): 2 µg/mL

Cc1nc2ccccc2n1CCC(=O)NN=Cc1c(O)ccc2ccccc12 [divin, reference compound]
Cell morphology (A. baumannii ATCC 19606 [5]): elongated cell shape

Cc1onc(-c2ccccc2)c1C(=O)N[C@@H]1C(=O)N2[C@@H]1SC(C)(C)[C@@H]2C(=O)O [OXA, oxacillin, reference compound]
MIC [6]: 16 µg/mL (≈ 39.9 µM)
MIC [7]: > 64 µg/mL
MIC [8]: > 64 µg/mL
MIC [9, 19]: > 64 µg/mL
MIC [10]: > 64 µg/mL
MIC [11]: > 64 µg/mL
MIC [12]: > 64 µg/mL
MIC [13]: > 64 µg/mL
MIC [14]: > 16 µg/mL

CC1(C)S[C@@H]2[C@H](NC(=O)[C@H](N)c3ccc(O)cc3)C(=O)N2[C@H]1C(=O)O [Amoxycillin, reference compound]
MIC (A. baumannii XDR UW 5075; [17]): 1020 µg/mL (≈ 2800 µM)
MIC (A. baumannii ATCC 19606 [2]; [18]): 64 µg/mL (≈ 175 µM)

CNC(C)C1CCC(N)C(OC2C(N)CC(N)C(OC3OCC(C)(O)C(NC)C3O)C2O)O1 (stereo not shown) [Gentamicin, reference compound]
MIC (A. baumannii XDR UW 5075; [17]): > 1020 µg/mL
MIC (A. baumannii ATCC 19606 [2]; Acinetobacter baumannii, ATCC19606, 18 h): 16 µg/mL (≈ 33.5 µM)

C[C@H]1COc2c(N3CCN(C)CC3)c(F)cc3c(=O)c(C(=O)O)cn1c23 [Levofloxacin, reference compound]
MIC (A. baumannii XDR UW 5075; [17]): 8 µg/mL (≈ 22.1 µM)
MIC (A. baumannii ATCC 19606 [2]; [18]): 0.5 µg/mL (≈ 1.38 µM)
MIC [6]: 1 µg/mL (≈ 2.77 µM)
MIC [7]: 1 µg/mL (≈ 2.77 µM)
MIC [8]: 0.004 µg/mL (≈ 0.0111 µM)
MIC ([9]; Escherichia coli, WTBW25113, read-out: Antibacterial activity (MIC)): 0.25 µg/mL (≈ 0.692 µM)
MIC [10]: 1 µg/mL (≈ 2.77 µM)
MIC [15]: 1 µg/mL (≈ 2.77 µM)
MIC [11]: 1 µg/mL (≈ 2.77 µM)
MIC [12]: 0.5 µg/mL (≈ 1.38 µM)
MIC [16]: 1 µg/mL (≈ 2.77 µM)
MIC [13]: 1 µg/mL (≈ 2.77 µM)
MIC [14]: 1 µg/mL (≈ 2.77 µM)

CO[C@H]1/C=C/O[C@@]2(C)Oc3c(C)c(O)c4c(O)c(c(/C=N/N5CCN(C)CC5)c(O)c4c3C2=O)NC(=O)/C(C)=C\C=C\[C@H](C)[C@H](O)[C@@H](C)[C@@H](O)[C@@H](C)[C@H](OC(C)=O)[C@@H]1C [RIF, rifampicin, reference compound]
MIC [6]: 32 µg/mL (≈ 38.9 µM)
MIC [7]: 32 µg/mL (≈ 38.9 µM)
MIC [8]: > 16 µg/mL
MIC [9, 19]: > 16 µg/mL
MIC [10]: > 64 µg/mL
MIC [11]: 8 µg/mL (≈ 9.72 µM)
MIC [12]: 32 µg/mL (≈ 38.9 µM)
MIC [13]: 32 µg/mL (≈ 38.9 µM)
MIC [14]: 16 µg/mL (≈ 19.4 µM)

Triton X-100 [reference compound]
Hemolytic activity (human red blood cells): completely disrupt the red blood cells
